{"source": "patent US20130053434A1", "about": "“IRREVERSIBLE INHIBITORS USEFUL FOR THE TREATMENT OF KINASE-RELATED PATHOLOGIES” (CENTRE NATIONAL DE LA RECHERCHE SCIENTIFIQUE, priority 2009, published 2013)", "key": {"[1]": {"system": "RENCA-LN cells", "test": "RENCA cell proliferation assay", "type": "cell-based, Murine", "experimental": "Murine RENCA cells were originally obtained from a tumor that arose spontaneously in the kidney of BALB/c mice. Histologically, RENCA consists of granular cell type adenocarcinoma, which is pleomorphic with large nuclei. To obtain RENCA-LN, RENCA cells were transduced using a retrovirus encoding a luciferase-neomycin fusion protein and selected using 1 mg/ml G418. RENCA-LN cells were plated with 1.500 cells/150 μl/well in DMEM supplemented with 10% FCS in 96 well culture dishes. The following day the serial diluted test samples (from 1 mM to 0.1 μM in DMSO) were mixed with medium (1:25) and 50 μl of the mix was added to each well of the cultured cells (1:4) resulting in a final DMSO concentration of 1%. Cells were grown for 72 h at 10% CO2 and 37° C. After 72 h RENCA-LC cells were lysed in 100 μL luciferase assay buffer, and 10 μl of the lysate was assayed for luciferase activity. The mean value of the low controls of each 96 well cell culture plate represents the background which was subtracted from all other data points of the respective plate. Raw data were converted into percent proliferation relative to the high control, which were set to 100%. […] determination was done with GraphPad Prism 5.01 software with constrain of bottom to 0 and top to 100 using a nonlinear regression curve fit with variable hill slope. The equation is a four-parameter logistic equation. […]"}, "[2]": {"system": "VEGFRs", "test": "KinomeScan kinase selectivity profile (50 kinases): VEGFRs", "type": "binding", "conditions": "1 μM", "description": "The selectivity profile was measure using the KinomeScan™ technology (http://www.kinomescan.com/) based on active-site dependent competition binding assay (Karaman, M. W., et al. (2008) Nat. Biotechnol. 26, 127-32; Fabian, M. A., et al. (2005) Nat. Biotechnol. 23, 329-36). Compounds 3 and 5 were profiled against a panel of 50 kinases including 42 kinases from the group of 48 kinases predicted by Santi et al. (Schirmer, A., et al. (2006) Proc. Natl. Acad. Sci. USA 103, 4234-9) to be targeted by hypothemycin and 5 mutants of FLT3 as well as 3 mutants of KIT. Both compounds were assayed at 1 μM. The results are expressed as a percentage of signal between a negative (DMSO) and positive (know binder) control [(test compound−positive control)/([…])×100]."}, "[3]": {"test": "plasma half-life", "type": "in vitro ADME"}, "[4]": {"system": "orthotopically implanted RENCA-LN cells", "test": "orthotopic murine renal cell carcinoma (RENCA) model, in vivo efficacy", "conditions": "for tumor growth by bioluminescence and primary tumor volume: 20 mg/kg i.p.", "experimental": "RENCA-LN cells were obtained and cultured as described above. Sixty female BALB/c mice of 5 to 6 weeks were orthotopically implanted RENCA-LN cells into the left kidney (4×10^5 cells in 25 μl aliquots into the subcapsular space through a flank incision, Day 0). The mice were randomly divided into 5 groups of 12 mice each. On day 2, therapy was initiated. Animals in the vehicle control group (group 1) received 10 ml/kg Vehicle (PBS w/o Ca/Mg, 10% DMSO, 40% PEG-300) i.p. once daily until day 19. Animals of positive control group (group 2) received 40 mg/kg Sunitinib (Sutent®) p.o. once daily until day 20. Animals of treatment group 3 and 4 received 20 mg/kg of 3 once daily and every other day respectively (i.p.). Animals of treatment group 5 received 20 mg/kg of 5 once daily (i.p.). Due to partial weight loss, therapy in Groups 3 and 5 was suspended on days 11 and 12 and stopped on day 17. On day 20, the study was terminated and a necropsy performed. All animals were weighted, anaesthetised by isoflurane and killed by exsanguination. Two animals in group 1 were found dead on day 19 and 1 animal in group 3 and 5 on day 11 and 9 respectively. At necropsy, primary tumor weight and volume, lung weight and number of lung metastases were determined. Primary tumor tissues were collected and divided into two parts. One part of each tumor was snap-frozen in liquid nitrogen and stored at −80° C. whereas the other part was analyzed via ex vivo bioluminescence imaging. During the course of the study, the growth of the orthotopically implanted RENCA tumors was monitored on days 7, 14 and 19 using in vivo bioluminescence imaging. For this purpose, luciferin was injected intraperitoneally (i.p.) into the mice and light emission was measured post injection (10 min) using a NightOWL LB 981 bioluminescence imaging system (Berthold Technologies, Germany). The migration of RENCA tumor cells into the lung (metastasis) was analyzed post necropsy by counting nodules and using the luciferase assay. For this purpose, lungs were collected, homogenized, and assayed for luciferase activity using the kit from Promega (E1501) according to the manufacturer's instructions. Protein concentrations were determined using a Bradford assay and used to normalize luciferase activities (except for the primary tumor). A histological examination of the tumor vasculature was performed. For this purpose, cryosections of primary tumor tissues (thickness=5-10 μm) from the snap-frozen portion of the organ and blood vessels were visualized by immunohistochemical staining for CD 31 (PECAM-1; PharMingen, San Diego, Calif.). […] Statistical analysis of efficacy data was done using the Mann Whitney test."}, "[5]": {"test": "dose finding study", "type": "in vivo", "description": "(§1) As a bench mark, the natural product LL Z-1640-2 was also included in the assay. […] Compound 3 and 5 were selected as prototypical examples of modified RALs for further investigations. As described in the method section, both of these compounds derived from a common synthetic intermediate and can be readily prepared in gram quantities. […] Primary tumor weight confirmed these observations. A key objective of this study was to measure the effect of these compounds on metastasis. Upon termination of the study, the lungs were inspected for metastatic nodules and the ex-vivo luciferase activity of lung homogenates was measured. […] It should be noted that these compounds were also shown to inhibit the inflammation pathways which have been implicated in facilitating metastasis."}, "[6]": {"test": "solubility in aqueous buffers", "type": "physicochemical", "conditions": "compared with 5", "description": "as §1"}, "[7]": {"target": "T1, VEGFR2 (Homo sapiens, UniProt P35968)", "T1 sequence (P35968 20-1356, species assumed)": "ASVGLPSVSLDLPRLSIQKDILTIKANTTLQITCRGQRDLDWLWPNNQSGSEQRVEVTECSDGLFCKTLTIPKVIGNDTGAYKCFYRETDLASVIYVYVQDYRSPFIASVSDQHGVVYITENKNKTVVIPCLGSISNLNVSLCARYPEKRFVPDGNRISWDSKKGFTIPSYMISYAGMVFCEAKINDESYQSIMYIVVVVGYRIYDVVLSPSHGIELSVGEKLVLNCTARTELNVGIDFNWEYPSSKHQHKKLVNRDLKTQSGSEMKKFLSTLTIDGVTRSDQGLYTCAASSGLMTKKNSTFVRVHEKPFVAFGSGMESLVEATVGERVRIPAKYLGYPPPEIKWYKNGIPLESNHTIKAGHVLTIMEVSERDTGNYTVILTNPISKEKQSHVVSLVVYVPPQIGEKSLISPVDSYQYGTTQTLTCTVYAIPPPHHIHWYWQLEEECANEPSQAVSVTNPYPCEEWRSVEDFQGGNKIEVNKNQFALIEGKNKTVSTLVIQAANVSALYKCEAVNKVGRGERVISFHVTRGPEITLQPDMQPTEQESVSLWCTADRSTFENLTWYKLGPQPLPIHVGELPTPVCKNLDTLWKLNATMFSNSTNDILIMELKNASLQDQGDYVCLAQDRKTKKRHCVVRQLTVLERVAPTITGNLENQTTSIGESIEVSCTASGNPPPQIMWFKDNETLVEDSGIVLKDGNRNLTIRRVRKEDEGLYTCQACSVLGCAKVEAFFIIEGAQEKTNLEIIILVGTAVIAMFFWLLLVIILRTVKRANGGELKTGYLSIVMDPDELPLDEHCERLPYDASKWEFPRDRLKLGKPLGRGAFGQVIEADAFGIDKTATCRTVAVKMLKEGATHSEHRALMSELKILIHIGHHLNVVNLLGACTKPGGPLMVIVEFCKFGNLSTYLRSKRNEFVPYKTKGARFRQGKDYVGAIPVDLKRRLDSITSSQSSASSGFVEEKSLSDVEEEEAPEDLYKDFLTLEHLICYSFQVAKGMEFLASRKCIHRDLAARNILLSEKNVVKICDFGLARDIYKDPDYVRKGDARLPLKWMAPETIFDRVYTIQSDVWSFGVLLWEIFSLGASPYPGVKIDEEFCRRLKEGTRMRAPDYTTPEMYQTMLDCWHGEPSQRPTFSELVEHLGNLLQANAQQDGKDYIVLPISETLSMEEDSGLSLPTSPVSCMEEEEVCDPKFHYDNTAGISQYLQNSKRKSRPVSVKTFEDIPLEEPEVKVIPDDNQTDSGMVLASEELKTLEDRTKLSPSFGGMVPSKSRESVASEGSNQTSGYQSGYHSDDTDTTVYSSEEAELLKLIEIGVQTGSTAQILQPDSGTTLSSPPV", "test": "biochemical inhibition of VEGF-R2", "conditions": "FIG. 20", "experimental": "It should be noted that as these compounds are expected to be irreversible inhibitors, the measured IC50 will depend on the procedure used and caution should be applied in comparing data from experiments performed under different conditions. To obtain a value which best reflects the rate of inactivation, the substrate and inhibitor were added simultaneously to the kinase solution. The data is shown in FIG. 9 (kinases have been ranked from the highest to least inhibited). As evident from FIG. 9, there is very little difference in relative selectivity of kinase inhibition throughout the library under these conditions. […] Overall, the trend of structure activity relationship which emerged from this screen is that the chiral methyl group at the ester position, while not essential, does provide higher activity (entry 6 vs. 10, 7 vs. 11 and 8 vs. 12). Substitution at the adjacent position with a hydroxyl group (entry 14 vs. 7) or at the β-position of the enone with a methyl abrogated activity (15-19). […] The trend of activity for the three natural products can be ranked as follows: alkene=epoxide>alkane. […] The two modifications of R^2 tested were beneficial in certain combinations. For example, the extra hydroxyl group present in fragment i does afford a significant (10 fold) gain of activity (8 vs. 7) in combination with fragment a. […]"}, "[8]": {"test": "isomerization of the enone under acid deprotection conditions", "type": "physicochemical", "conditions": "prolonged reaction times", "description": "The synthesis commenced with the straightforward conversion of ester 5 into fluoroenal 7 via aldehyde 6 relying on a Horner-Wadsworth-Emmons reaction with triethyl 2-fluoro-2-phosphonoacetate to install the desired E-fluoroenoal (FIG. 19). Reaction of aldehyde 7 with […] afforded the desired alcohol as a 1:1 diasteromeric mixture which was reduced to the cis-alkene using Lindlar's catalyst (H2, Pd/CaCO3) to afford compound 9. As the hydroxyl group will ultimately be oxidized to the ketone, the lack of selectivity is inconsequential. Benzoyl protection of alcohol 9 thus afforded 10 wherein the terminal OPMB was converted to an iodide 11 (DDQ; I2, PPh3, imidazole). Attempts to engage this compound in alkylation chemistry with a phenol led to rapid elimination of the iodide to give a conjugated triene (product not shown). To circumvent this elimination which was thought to be facilitated by the presence of the alkene, compound 10 was dihydroxylated (2.5:1 dr in favor of the desired isomer 12) and converted to acetonide 13. Conversion of the terminal protected PMB ether into an iodide afforded the key intermediate 14. Following previously established chemistry, fragment 14 was coupled to the aromatic moiety 15 bearing a benzylic selenide by alkylation followed by oxidation/elimination of the selenide to afford 17. […]"}, "[9]": {"target": "T1, VEGFR2", "test": "cellular inhibition of VEGFR2", "type": "cell-based", "conditions": "triplicate", "experimental": "FIG. 21. […] Assays were performed in triplicate.\nTo gage the undiscriminate reactivity of these enone resorcylic acids with thiols, fluoroenone 2 and the parent analogue lacking the fluoride were treated with one equivalent of DTT (2 mM) as a prototypical thiol nucleophile in PBS (pH 7.4) containing 1% DMSO. […] With fluoroenone 1 and 2 in hand, we tested their efficacy against VEGF-R2 which was frequently found to be the most inhibited kinase in our profile of cis-enone resorcylic acid library (Dakas, P. Y., et al. (2007) Angew. Chem. Int. Ed. Engl. 46, 6899-902; Jogireddy, R., et al. (2009) Chem. Eur. J. 15, 11498-506) and KIT which represents a less inhibited kinase. […] Their cellular activity against VEGF-R2 did parallel the biochemical activity. […] During the course of our investigation, a similar modification was reported by researchers from Esai (Du, H., et al. (2009) Bioorg. Med. Chem. Lett. 19, 6196-9) however, their medicinal chemistry efforts focused the inhibition of inflammation related pathways (MEKs and their down-stream regulatory effect on cytokines) (Du, H., et al. (2009) Bioorg. Med. Chem. Lett. 19, 6196-9; Goto, M., et al. (2009) J. Pharmacol. Exp. Ther. 331, 485-95). […]"}, "[10]": {"conditions": "in vivo; cited from earlier work"}, "[11]": {"target": "ERK2 (Homo sapiens, UniProt P28482)", "sequence (P28482 whole entry, species assumed)": "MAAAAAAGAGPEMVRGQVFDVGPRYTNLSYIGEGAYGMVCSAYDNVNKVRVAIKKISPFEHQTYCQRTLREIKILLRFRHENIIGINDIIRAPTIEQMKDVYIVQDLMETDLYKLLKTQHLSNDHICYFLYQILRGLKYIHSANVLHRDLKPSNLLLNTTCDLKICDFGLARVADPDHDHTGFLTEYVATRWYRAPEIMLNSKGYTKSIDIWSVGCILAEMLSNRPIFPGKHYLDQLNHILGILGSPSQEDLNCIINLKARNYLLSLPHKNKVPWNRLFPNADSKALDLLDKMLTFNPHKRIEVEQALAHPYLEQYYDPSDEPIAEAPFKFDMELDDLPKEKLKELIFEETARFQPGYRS", "conditions": "covalent Michael adduct with cys166; cited from earlier work"}, "[12]": {"system": "colon and lung tumors", "conditions": "mice bearing colon and lung tumors; cited from earlier work"}}, "data": [{"smiles": "C[C@H]1C/C=C\\C(=O)[C@@H](O)[C@@H](O)CCOc2cc(O)cc(O)c2C(=O)O1", "note": "[1agh]", "values": [{"measurement": "efficacy in inhibiting renal carcinoma cell line compared with natural product LL Z-1640-2", "setting": "[1]; FIG. 14", "result": "as effective as the natural product"}, {"measurement": "IC50", "setting": "[1]; Mus musculus, Renca, FIG. 12, read-out: IC50, renal carcinoma line (RENCA)", "result": "100 to 500", "unit": "nM"}, {"measurement": "inhibition of VEGFRs in kinase profile", "setting": "[2]", "result": "strongly inhibited"}, {"measurement": "plasma half-life", "setting": "[3]", "result": "short plasma half life"}, {"measurement": "tumor vasculature histology (CD-31 staining), angiogenesis", "setting": "[4]; 20 mg, q1d", "result": "strong inhibition of angiogenesis"}, {"measurement": "tumor growth in mice", "setting": "[4]; 20 and 10 mg/kg", "result": "clear reduction in tumor growth"}, {"measurement": "tumor growth by bioluminescence and primary tumor volume", "setting": "[4]; administered every other day", "result": "marginal decrease activity"}, {"measurement": "animal weights decrease", "setting": "[4]; between day 2 and day 5, q1d", "result": 8, "unit": "%"}, {"measurement": "lung metastasis (metastatic nodules)", "setting": "[4]; compared with untreated group, lungs inspected at termination", "result": "A similar result"}, {"measurement": "tumor growth by bioluminescence and primary tumor volume", "setting": "[4]; daily dosing", "result": "highly significant reduction of tumor growth"}, {"measurement": "luciferase activity from lung homogenates", "setting": "[4]; ex vivo, compared with untreated group", "result": "A similar result"}, {"measurement": "tolerability", "setting": "[5]; 25 mg/kg", "result": "tolerated"}, {"measurement": "toxicity at high dose", "setting": "[5]; 75 mg/kg", "result": "systemic toxicity"}, {"measurement": "solubility in aqueous buffers", "setting": "[6]", "result": "notably more soluble in aqueous buffers than 5"}]}, {"smiles": "C[C@H]1C/C=C(/F)C(=O)[C@@H](O)[C@@H](O)C/C=C/c2cc(O)cc(O)c2C(=O)O1", "note": "[fluoroenone 1]", "values": [{"measurement": "IC50", "setting": "[7]", "result": 6.8, "unit": "nM"}, {"measurement": "isomerization (epimerization) of the fluoroenone", "setting": "[8]", "result": "no trace of isomerization was observed"}, {"measurement": "IC50", "setting": "[9]", "result": 17, "unit": "nM"}]}, {"smiles": "COc1cc(O)c2c(c1)[C@H]1O[C@@H]1C[C@H](O)[C@H](O)C(=O)/C=C\\C[C@H](C)OC2=O", "note": "[hypothemycin]", "values": [{"measurement": "efficacy in animal models", "setting": "[10]", "result": "effective in animal models"}, {"measurement": "inactivation of ERK2", "setting": "[11]", "result": "irreversibly inactivates ERK2"}, {"measurement": "tumor growth inhibition", "setting": "[12]", "result": "only modest growth inhibition"}]}]}
